Results reported in publication PMC12442081, “Combating Fuel Biocontamination: Tailored Antimicrobial Peptides and an Innovative Delivery Strategy” (ACS Applied Bio Materials, 2025).
Where no end group is shown, it is not given here.

Key:
[1] = test system: Bacillus licheniformis (BL) ATCC 14580; format: cell-based; settings: ATCC 14580
Method: (§1) All of the bacterial species were grown overnight at 37 °C in LB broth. 10^7 CFU/mL of cells were resuspended in fresh culture and grown until the mid log phase. , The bacterial cells were adjusted to a concentration of 5 × 10^5 CFU/mL to quantify the MIC. Equal volumes of the respective bacterial cultures were incubated with the serially diluted peptides in 96-well microtiter plate and incubated overnight at 37 °C in ambient air. Microorganisms without peptides were treated as the positive control, while uninoculated broth was used as the negative control. The MIC was taken as the lowest peptide concentration at which observable bacteria growth was inhibited, as measured by a microplate reader (Biotek Synergy H1 microplate reader). Experiments were performed in triplicates, and the mean MIC values were determined. A similar study was performed to understand the effect of peptide purity, i.e., ranging from 70 to 95%, on the peptide MIC.

[2] = test system: Dermacoccus nishinomiyaensis (DN) ATCC 29093; format: cell-based
Method: as §1

[3] = test system: Micrococcus yunnanensis (MY) ATCC 12698; format: cell-based
Method: as §1

[4] = test system: Sphingomonas paucimobilis (SP); format: cell-based
Method: as §1

[5] = test system: Kocuria rosea (KR) ATCC 186; format: cell-based
Method: as §1

[6] = test system: Macrococcus caseolyticus (MC) ATCC 13548; format: cell-based
Method: as §1

[7] = HPLC retention time as a function of peptide hydrophobicity; format: physicochemical; settings: chromatographic, Polaris 5 C18-A reverse phase, 0.1% TFA water / 0.1% TFA acetonitrile gradient, 30 min, 300 μM peptide
Method: The purity of the peptides was ascertained by high-performance liquid chromatography (HPLC) using Polaris 5 C18-A […] × 4.6 mm reverse phase Zorbax columns from Agilent Technologies. The buffer system contained 0.1% (v/v) TFA in 100% water and 0.1% (v/v) TFA in 100% acetonitrile. Each peptide sample contained 300 μM peptides dissolved in an acetonitrile–water (1:4) mixture. A constant gradient of the two solvent systems was used to generate the chromatogram for 30 min after sample injection.

[8] = test system: microbial clusters MY, KR, DN, MC, BL, RM, SP, PA, HR; experiment: Broad-spectrum activity score (in-house scoring matrix); settings: sum over 9 microbial clusters: (+) = 1, (X) = 0, Fuel x = -1
Method: Table S4. Summarizing the broad-spectrum activity of the peptides, considering the MIC value/ efficacy to control microbial growth upon fuel co-incubation
Peptides Bacterial clusters Fungal
Actinobacteria Firmicutes Proteobacteria Asco- […]
Peptides identified based on the scoring matrix, where (+) =1 (implying peptide activity in fuel environment); (X) = 0 (implying no activity in the desired range, indicated by microbial proliferation); Fuel x = -1(implying no activity in fuel environment).
Clearly, P17 is the best performing peptide in vitro across diverse microbial phyla as well as when incubated in the fuel environment. Based on the activity of the selected peptides, the best

[9] = test system: Pseudomonas aeruginosa (PA); experiment: Effectiveness of peptides on spiked fuel samples (aqueous layer); format: cell-based; set-up: key: (+) =1 (implying peptide activity in fuel environment); (X) = 0 (implying no activity in the desired range, indicated by microbial proliferation); Fuel x = -1(implying no activity in fuel environment); settings: initial screening in spiked fuel
Method: (§2) To study the partitioning of microbes in fuel tanks, filter-sterilized fuel was mixed with BH medium in a 1:1 (v/v) ratio. The inoculum was added to the aqueous phase at the bottom to simulate growth in the aqueous layer of fuel tanks and incubated aerobically at 30 °C for 30 days. Visible growth was assessed, and aliquots from both the aqueous and fuel phases were plated on nutrient agar plates to evaluate microbial growth. Peptides were initially added to the aqueous layer of microbially spiked fuel samples for screening the effectiveness in the fuel environment. The study was further extended over a longer duration, and incubated under aerobic conditions at 30 °C for 30 days. Microbial growth was monitored at regular intervals by plating aliquots from the aqueous layer on the nutrient agar plates.
(§3) The engineered peptides were administered at their respective MICs to the aqueous layer of simulated fuel samples, and samples from both the aqueous and solvent (fuel) layers were removed at intervals of 7, 14, 21, and 30 days and plated on LBA plates to assess cell viability (Table S5).

[10] = test system: Roseomonas mucosa (RM); experiment: as above; format: cell-based; set-up: key: (+) =1 (implying peptide activity in fuel environment); (X) = 0 (implying no activity in the desired range, indicated by microbial proliferation); Fuel x = -1(implying no activity in fuel environment); settings: initial screening in spiked fuel
Method: as §2, §3

[11] = test system: Kocuria rosea (KR); experiment: as above; format: cell-based; set-up: key: (+) =1 (implying peptide activity in fuel environment); (X) = 0 (implying no activity in the desired range, indicated by microbial proliferation); Fuel x = -1(implying no activity in fuel environment); settings: initial screening in spiked fuel
Method: as §2, §3

[12] = test system: Macrococcus caseolyticus (MC); experiment: as above; format: cell-based; set-up: key: (+) =1 (implying peptide activity in fuel environment); (X) = 0 (implying no activity in the desired range, indicated by microbial proliferation); Fuel x = -1(implying no activity in fuel environment); settings: initial screening in spiked fuel
Method: as §2, §3

[13] = test system: Bacillus licheniformis (BL); experiment: as above; format: cell-based; set-up: key: (+) =1 (implying peptide activity in fuel environment); (X) = 0 (implying no activity in the desired range, indicated by microbial proliferation); Fuel x = -1(implying no activity in fuel environment); settings: initial screening in spiked fuel
Method: as §2, §3

[14] = test system: Sphingomonas paucimobilis (SP); experiment: as above; format: cell-based; set-up: key: (+) =1 (implying peptide activity in fuel environment); (X) = 0 (implying no activity in the desired range, indicated by microbial proliferation); Fuel x = -1(implying no activity in fuel environment); settings: initial screening in spiked fuel
Method: as §2, §3

[15] = test system: Hormoconis resinae (HR); experiment: as above; format: cell-based; set-up: key: (+) =1 (implying peptide activity in fuel environment); (X) = 0 (implying no activity in the desired range, indicated by microbial proliferation); Fuel x = -1(implying no activity in fuel environment); settings: initial screening in spiked fuel
Method: as §2, §3

[16] = test system: Dermacoccus nishinomiyaensis (DN); experiment: as above; format: cell-based; set-up: key: (+) =1 (implying peptide activity in fuel environment); (X) = 0 (implying no activity in the desired range, indicated by microbial proliferation); Fuel x = -1(implying no activity in fuel environment); settings: initial screening in spiked fuel
Method: as §2, §3

[17] = test system: Micrococcus yunnanensis (MY); experiment: as above; format: cell-based; set-up: key: (+) =1 (implying peptide activity in fuel environment); (X) = 0 (implying no activity in the desired range, indicated by microbial proliferation); Fuel x = -1(implying no activity in fuel environment); settings: initial screening in spiked fuel
Method: as §2, §3

[18] = test system: Pseudomonas aeruginosa (PA) ATCC 39327; format: cell-based; settings: ATCC 39327
Method: as §1

[19] = test system: Hormoconis resinae (HR) ATCC 20267; format: cell-based
Method: as §1
The same experimental procedures that were conducted for the antibacterial assay were used to determine the MIC of the peptides against the fungal strain, H. resinae.

Compound | MIC [1] [µM] | MIC [2] [µM] | MIC [3] [µM] | MIC [4] [µM] | MIC [5] [µM] | MIC [6] [µM] | R t, retention time of peptide on HPLC column as a function of peptide hydrophobicity [7] [min] | Score [8] | activity considering MIC value/efficacy upon fuel co-incubation [9] | activity considering MIC value/efficacy upon fuel co-incubation [10] | activity considering MIC value/efficacy upon fuel co-incubation [11] | activity considering MIC value/efficacy upon fuel co-incubation [12] | activity considering MIC value/efficacy upon fuel co-incubation [13] | activity considering MIC value/efficacy upon fuel co-incubation [14] | activity considering MIC value/efficacy upon fuel co-incubation [15] | activity considering MIC value/efficacy upon fuel co-incubation [16] | activity considering MIC value/efficacy upon fuel co-incubation [17] | MIC [18] [µM] | MIC [19] [µM]
CC[C@H](C)[C@H](N)C(=O)N[C@@H](CC(C)C)C(=O)N[C@H](C(=O)N[C@@H](Cc1c[nH]c2ccccc12)C(=O)N[C@@H](CCCCN)C(=O)N[C@@H](Cc1c[nH]c2ccccc12)C(=O)N1CCC[C@H]1C(=O)N[C@@H](Cc1c[nH]c2ccccc12)C(=O)N[C@@H](Cc1c[nH]c2ccccc12)C(=O)N1CCC[C@H]1C(=O)N[C@@H](Cc1c[nH]c2ccccc12)C(=O)N[C@@H](CCCNC(=N)N)C(=O)N[C@@H](CCCNC(=N)N)C(=O)O)[C@@H](C)CC [P18] | 1.9 | 0.9 | 0.9 | 0.9 | 0.9 | 31.25 | 13.314 | 3 | X | X | + | X | + | + | X | Fuel x | + |  | 
ILPWKWPWWVWRR [P5] | 0.9 | 0.9 | 0.9 | 0.9 | 0.9 |  | 12.045 | 3 | X | X | Fuel x | X | + | + | X | + | + | 31.25 | 62.5
CC[C@H](C)[C@H](N)C(=O)N[C@@H](CC(C)C)C(=O)N[C@@H](Cc1ccccc1)C(=O)N[C@@H](Cc1c[nH]c2ccccc12)C(=O)N[C@@H](CCCCN)C(=O)N[C@@H](Cc1c[nH]c2ccccc12)C(=O)N1CCC[C@H]1C(=O)N[C@@H](Cc1c[nH]c2ccccc12)C(=O)N[C@@H](Cc1c[nH]c2ccccc12)C(=O)N1CCC[C@H]1C(=O)N[C@@H](Cc1c[nH]c2ccccc12)C(=O)N[C@@H](CCCNC(=N)N)C(=O)N[C@@H](CCCNC(=N)N)C(=O)O [P16] | 0.9 |  | 0.9 | 0.9 | 1.9 | 125 | 14.075 | 4 | X | X | + | X | + | + | X | X | + |  | 
ILPWKWVWWPWRR [P8] | 1.9 | 0.9 | 0.9 | 3.91 |  |  | 12.168 | 2 | X | X | X | X | + | + | X | Fuel x | + | 15.625 | 31.25
CC[C@H](C)[C@H](N)C(=O)N[C@@H](CC(C)C)C(=O)N[C@@H](CC(C)C)C(=O)N[C@@H](Cc1c[nH]c2ccccc12)C(=O)N[C@@H](CCCCN)C(=O)N[C@@H](Cc1c[nH]c2ccccc12)C(=O)N1CCC[C@H]1C(=O)N[C@@H](Cc1c[nH]c2ccccc12)C(=O)N[C@@H](Cc1c[nH]c2ccccc12)C(=O)N1CCC[C@H]1C(=O)N[C@@H](Cc1c[nH]c2ccccc12)C(=O)N[C@@H](CCCNC(=N)N)C(=O)N[C@@H](CCCNC(=N)N)C(=O)O [P19] | 1.9 | 0.9 | 0.9 | 0.9 | 3.9 |  | 13.667 | 3 | X | X | Fuel x | X | + | + | X | + | + |  | 
